Measurements from patent publication US11852633B2 (priority 2017, dated 2023).

Conditions: K2CO3 5 mM, CH3CN:water (4:1), 1 hour

## O=[N+]([O-])c1ccc(S(=O)(=O)Oc2ccccc2)c([N+](=O)[O-])c1 [probe 1, phenyl 2,4-dinitrobenzenesulfonate]
Probe 2.50 mM, amino acid 1.25 mM
  CD response with other L-amino acids (phenylalanine, alanine, serine, tyrosine) versus L-Cys: remained CD silent with the exception of the cysteine solution
Probe 2.5 mM, biothiol 1.25 mM
  CD response with biothiols L-homocysteine and L-glutathione: no induction of a CD signal
